The record followed here is patent publication US20220387457A1 (Qlaris Bio, Inc., priority 2020, published 2022).

The test system of data set [1] is 3D-glaucomatous human trabecular meshwork/Schlemm's canal tissue model. Description: Outflow facility by perfusion in 3D-glaucomatous human trabecular meshwork/Schlemm's canal constructs. Type of data set: cell-based. The settings on record: levcromakalim 1 μM, TGF-β2 treated constructs, 4 donors, vs TGF-β2 (P<0.0001) or Y-27632 (P<0.05). The method, then: Bioengineered 3D conventional outflow tract constructs using 4 donors (ages 47-91) were treated with […] (5 ng/mL) for 6 days. […] Protein expression of α-smooth muscle actin (α-SMA), CD31, endothelin-I, fibronectin, VE-cadherin, phospho-eNOS and total eNOS was analyzed via western blot. Cellular expression of α-SMA, fibronectin, phospho-eNOS and total eNOS was determined by immunocytochemistry and confocal microscopy. Statistical significance was determined by one-way ANOVA with a Tukey's multiple comparisons test, or by two-way ANOVA.

Data set [2] relates to 5′-nucleotidase. Description: Conversion of CKLP1 by 5′-nucleotidase, LC/MS-MS, pH 7.4. Type of data set: biochemical, human. The settings on record: up to 2 hours. The method, then:
Conversion of CKLP1 (200 μM-5.0 mM) was examined by LC/MS-MS following incubation at pH 7.4 with either human alkaline phosphatase (ALP), acid phosphatase, or 5′-nucleotidase (2.01 nM-1.0 μM) for up to 2 hours.

A short description of data set [3]: In vitro conversion of CKLP1 to levcromakalim in human ocular tissues and fluids. The settings on record: 10 μM CKLP1, 37° C. It counts as in vitro ADME. The method, then:
Aqueous humor was collected from each eye and combined in a single 1.5-mL tube. The eyes were then bisected at the equator, and vitreous humor was collected from both eyes, combined, and placed in a 15-mL conical tube and centrifuged at 1500 rpm for 10 minutes. Following centrifugation, the upper supernatant phase (less viscous region) was isolated and placed in a 1.5-mL tube. Tubes containing aqueous and vitreous humor were stored on ice. The following tissues were dissected from the eyes: cornea, retina, optic nerve, sclera, iris, ciliary body, and trabecular meshwork. The tissue samples were placed in 1.5-mL tubes containing approximately 200 μL of 50 mM Tris buffer pH 7.1. Each sample, except for the optic nerve sample, contained tissue from both eyes. Samples were stored on ice. Tissues were independently homogenized with a Polytron PT 1200 (setting 8) and placed on ice. The trabecular meshwork was lysed using a small pestle. In between samples, the homogenizer was cleaned and washed thoroughly with a minimum of 200 mL of distilled water.
Remaining tissue and debris were pelleted in an Eppendorf 5415C centrifuge at 13,000 rpm for 2 minutes. Supernatants were isolated and placed in clean 1.5-mL tubes. A Bradford protein assay was performed with 5 μL of supernatant of each sample. At the completion of the assay, 200-μL aliquots of each sample were placed in a 96-well plate, and protein concentrations were read using a TECAN Infinite® M200 plate reader at 595 nm. The final concentrations for all samples was 150 μg of protein in a solution of 10 μM CKLP1, except for vitreous humor, which only contained 100 μg of protein in 10 μM CKLP1 due to low protein concentration. There were 18 samples in total. Samples were mixed, briefly centrifuged and then, for each sample, a 100-μL portion was removed and placed in a new tube so that both tubes contained 100 μL (75 μg of protein each except vitreous humor, which contained 50 μg each). All pairs of samples were placed in incubation at 37° C. For each pair of tubes, one tube was incubated for 4 hours and one tube for 24 hours. At the completion of the incubation period, 200 μL of acetonitrile was added to each tube and mixed. Tubes were briefly centrifuged and placed at −80° C.

Data set [4] relates to African green monkeys (systemic blood pressure). Description: Systemic blood pressure in African green monkeys during 7-day topical CKLP1. Type of data set: in vivo, African green monkey. The settings on record: 10 mM CKLP1, 7 days. The method, then:
To further validate the IOP lowering effects of CKLP1 in large animal models, one eye of five African green monkeys was treated with topical ocular administration of 10 mM CKLP1, while the contralateral eye received vehicle (PBS). Baseline IOP in control and treated eyes were 20.1±1.8 mmHg and 21.9±2.5 mmHg, respectively.
For treatment days, 10 mM CKLP1 (dissolved in PBS) was added to one eye of each monkey in a 50 μl topical ocular administration, once daily, for 7 consecutive days, while the contralateral eye received a 50 μl ocular administration of vehicle (PBS).

Consider `CC1(C)Oc2ccc(C#N)cc2[C@@H](N2CCCC2=O)[C@@H]1O` [Levcromakalim, levcromakalim, reference compound], for which the “outflow facility (hydraulic conductivity)” value is “significantly improved outflow facility” in data set [1] and “significantly increased outflow facility” in data set [1] (listed as Leveromakalim).

With `CC1(C)Oc2ccc(C#N)cc2[C@@H](N2CCCC2=O)[C@@H]1OP(=O)(O)O` [CKLP1], the “conversion of CKLP1 to levcromakalim” value in data set [2] is “not”. Moreover, the “conversion of CKLP1 to levcromakalim over 24 hours” value in data set [3] (human aqueous humor) was “not”; in data set [3] (human ciliary body), 2.6%; in data set [3] (human cornea) it was 0.8%; in data set [3] (human iris) it was 3.9%; in data set [3] (human optic nerve) it was 0.9%; in data set [3] (human retina), 0.7%. In addition, the “conversion of CKLP1 to levcromakalim over 24 hours” value is on record as 1.6% in data set [3] (human sclera), 1.6% in data set [3] (human trabecular meshwork) and “not” in data set [3] (human vitreous humor). Besides, in data set [4] (baseline 68.1±6.0, p=0.13), the “diastolic pressure following treatment” value was found to be 76.0±8.2 mmHg. Besides, in data set [4] (baseline 118.7±12.0, p=0.6), the “systolic pressure after treatment” value turned out to be 121.1±7.3 mmHg.
